The target of test [1] is T1, PE-labeled human PD-L1-Ig binding to Jurkat cell line over-expressing human PD-1 (Jurkat-PD-1) (Homo sapiens, UniProt Q15116).
T1 construct: expressed in transfected cells; host or cells: Jurkat
Put plainly: Jurkat-PD-1 Cell Binding High-Content Screening Assay (CBA): Method 1. The following applies: Jurkat-PD-1 cells, PE-labeled PD-L1-Ig; μM; read-out: CBA Method 1 μM.

Test [2] has as its target T1, PE-labeled human PD-L1-Ig binding to Jurkat cell line over-expressing human PD-1 (Jurkat-PD-1). Nature of the test: Jurkat-PD-1 Cell Binding High-Content Screening Assay (CBA): Method 2 (presence and absence of tween-20). The following applies: Jurkat-PD-1 cells, PE-labeled PD-L1-Ig 20 nM; presence or absence of tween-20 not given; head μM; read-out: CBA Method 2 μM. An outline of the steps:
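Compounds incubated with Jurkat cells overexpressing human PD-1 for 2 h at 37° C, tested with and without tween-20 to flag aggregation. PE-labeled human PD-L1-Ig (20 nM final) added in DMEM/10% FCS; binding read by high-content imaging.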

Numbered stars: 1 amine (or outer) side, 2 acyl side, 3 side chain; on linkers, the order of the positions; unused ones are H or OH. Bridge positions count the residues as written; N and C are the ends. Square brackets hold non-standard residues; d marks the D form. Peptide text beside a SMILES is read from it. * marks the point of attachment. Bip(4'-COOH) = N[C@@H](Cc1ccc(-c2ccc(C(=O)O)cc2)cc1)C(=O)O; Bip(4'-NHAc) = CC(=O)Nc1ccc(-c2ccc(C[C@H](N)C(=O)O)cc2)cc1; X13 = O=C(CCc1ccccc1)NCc1cccc(C[C@H](N[*:1])C(=O)[*:2])c1; X14 = O=C(C[C@H](N[*:1])C(=O)[*:2])NS(=O)(=O)c1ccc(F)cc1; Phe(3-CF3) = N[C@@H](Cc1cccc(C(F)(F)F)c1)C(=O)O; Ala(morpholin-4-yl) = N[C@@H](CN1CCOCC1)C(=O)O; Phe(4-COOH) = N[C@@H](Cc1ccc(C(=O)O)cc1)C(=O)O; Bip = N[C@@H](Cc1ccc(-c2ccccc2)cc1)C(=O)O; Phe(3-OMe) = COc1cccc(C[C@H](N)C(=O)O)c1; Phe(3-F) = N[C@@H](Cc1cccc(F)c1)C(=O)O; Phe(3-Me) = Cc1cccc(C[C@H](N)C(=O)O)c1; Abu(3S-NH2) = C[C@H](N)[C@H](N)C(=O)O; 3Pal = N[C@@H](Cc1cccnc1)C(=O)O; Malonyl = O=C(CC(=O)[*:2])[*:1]; Cha = N[C@@H](CC1CCCCC1)C(=O)O; Carboxymethyl = O=C(O)C*; NMeA = CN[C@@H](C)C(=O)O; Nle = CCCC[C@H](N)C(=O)O; Orn = NCCC[C@H](N)C(=O)O; Dab = NCC[C@H](N)C(=O)O

T1 sequence (Q15116 25-288): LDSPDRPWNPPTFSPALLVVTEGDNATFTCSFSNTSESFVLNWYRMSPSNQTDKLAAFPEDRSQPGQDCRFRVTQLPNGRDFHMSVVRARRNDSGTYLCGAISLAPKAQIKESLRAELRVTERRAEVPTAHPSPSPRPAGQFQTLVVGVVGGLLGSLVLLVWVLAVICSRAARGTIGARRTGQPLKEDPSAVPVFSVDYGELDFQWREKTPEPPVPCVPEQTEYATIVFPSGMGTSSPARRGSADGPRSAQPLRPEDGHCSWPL

Consider `Cc1cccc(C[C@@H]2NC(=O)[C@H](CC(=O)O)NC(=O)[C@H](Cc3ccc(OCC(=O)O)cc3)NC(=O)[C@H](Cc3cccc(CNC(=O)CCc4ccccc4)c3)NC(=O)CSC[C@@H](C(=O)N[C@@H](CCN)C(N)=O)NC(=O)[C@H](CCCN)NC(=O)[C@H](C(C)C)NC(=O)[C@H](CC3CCCCC3)NC(=O)[C@H](CCN)NC(=O)[C@@H](CC(C)C)NC(=O)[C@H](C)N(C)C(=O)[C@H](CCC(N)=O)NC(=O)[C@H](Cc3ccc(-c4ccccc4)cc3)NC(=O)[C@H](Cc3ccc(C(=O)O)cc3)NC2=O)c1` [Example 5034] ({CH2CO}-[X13]Y(Carboxymethyl)D[Phe(3-Me)][Phe(4-COOH)][Bip]Q[NMeA][dL][Dab][Cha]V[Orn]C[Dab]-NH2; thioether N-14), for which the IC50 in test [1] was 0.0051 µM; in test [2] it was 0.0031 µM.

Regarding `CCCC[C@@H]1NC(=O)CSC[C@@H](C(=O)N[C@@H](CCN)C(N)=O)NC(=O)[C@H](CCCN)NC(=O)[C@H](C(C)C)NC(=O)[C@H](CC2CCCCC2)NC(=O)[C@H](CCN)NC(=O)[C@@H](CC(C)C)NC(=O)[C@H](C)N(C)C(=O)[C@H](CCCN)NC(=O)[C@H](Cc2ccc(-c3ccccc3)cc2)NC(=O)[C@H](Cc2ccc(-c3ccc(C(=O)O)cc3)cc2)NC(=O)[C@H](Cc2cccc(C(F)(F)F)c2)NC(=O)[C@H](CC(=O)O)NC(=O)[C@H](Cc2ccc(-c3ccc(C(=O)O)cc3)cc2)NC1=O` [Example 5088] ({CH2CO}-[Nle][Bip(4'-COOH)]D[Phe(3-CF3)][Bip(4'-COOH)][Bip][Orn][NMeA][dL][Dab][Cha]V[Orn]C[Dab]-NH2; thioether N-14), the results for the IC50 in test [1] and in test [2] were 0.09 µM and 0.2 µM, respectively.

`CC(=O)Nc1ccc(-c2ccc(C[C@@H]3NC(=O)[C@H](Cc4cccc(C(F)(F)F)c4)NC(=O)[C@H](CC(=O)O)NC(=O)[C@H](Cc4ccc(-c5ccc(C(=O)O)cc5)cc4)NC(=O)[C@H](Cc4ccc(OCC(=O)O)cc4)NC(=O)CSC[C@@H](C(=O)N[C@@H](CCN)C(N)=O)NC(=O)[C@H](CCC(=O)O)NC(=O)[C@H](C(C)C)NC(=O)[C@H](CC4CCCCC4)NC(=O)[C@H](CCN)NC(=O)[C@@H](CC(C)C)NC(=O)[C@H](C)N(C)C(=O)[C@H](CCCN)NC(=O)[C@H](Cc4ccc(-c5ccccc5)cc4)NC3=O)cc2)cc1` [Example 5084] ({CH2CO}-Y(Carboxymethyl)[Bip(4'-COOH)]D[Phe(3-CF3)][Bip(4'-NHAc)][Bip][Orn][NMeA][dL][Dab][Cha]VEC[Dab]-NH2; thioether N-14): the figures for the IC50 in test [1] and in test [2] were 0.0243 µM and 0.0332 µM, respectively.

Consider `COc1cccc(C[C@@H]2NC(=O)[C@H](CCN)NC(=O)[C@@H](CC(C)C)NC(=O)[C@H](C)N(C)C(=O)[C@H](CCC(N)=O)NC(=O)[C@H](Cc3ccc(-c4ccccc4)cc3)NC(=O)[C@H](Cc3ccc(C(=O)O)cc3)NC(=O)[C@H](Cc3cccc(C)c3)NC(=O)[C@H](CC(=O)O)NC(=O)[C@H](Cc3ccc(OCC(=O)O)cc3)NC(=O)[C@H](CN3CCOCC3)NC(=O)CSC[C@@H](C(=O)N[C@@H](CCN)C(N)=O)NC(=O)[C@H](CCCN)NC(=O)[C@H](C(C)C)NC2=O)c1` [Example 5043] ({CH2CO}-[Ala(morpholin-4-yl)]Y(Carboxymethyl)D[Phe(3-Me)][Phe(4-COOH)][Bip]Q[NMeA][dL][Dab][Phe(3-OMe)]V[Orn]C[Dab]-NH2; thioether N-14), for which the IC50 in test [1] and in test [2] was 0.0098 µM throughout.

For the molecule `CC(=O)Nc1ccc(-c2ccc(C[C@@H]3NC(=O)[C@H](Cc4cccc(C)c4)NC(=O)[C@H](CC(=O)O)NC(=O)[C@H](Cc4ccc(C(=O)O)cc4)NC(=O)[C@H](CC(C)C)NC(=O)CSC[C@@H](C(=O)N[C@@H](CCN)C(N)=O)NC(=O)[C@H](CCCN)NC(=O)[C@H](C(C)C)NC(=O)[C@H](CC4CCCCC4)NC(=O)[C@H](CCN)NC(=O)[C@@H](CC(C)C)NC(=O)[C@H](C)N(C)C(=O)[C@H](CCC(N)=O)NC(=O)[C@H](Cc4ccc(-c5ccccc5)cc4)NC3=O)cc2)cc1` [Example 5054] ({CH2CO}-L[Phe(4-COOH)]D[Phe(3-Me)][Bip(4'-NHAc)][Bip]Q[NMeA][dL][Dab][Cha]V[Orn]C[Dab]-NH2; thioether N-14), the IC50 in test [1] was 0.0053 µM; in test [2] it was 0.0057 µM.

Regarding `CC(=O)Nc1ccc(-c2ccc(C[C@@H]3NC(=O)[C@H](Cc4cccc(C)c4)NC(=O)[C@H](CC(=O)O)NC(=O)[C@H](Cc4ccc(C(=O)O)cc4)NC(=O)[C@H]([C@H](C)N)NC(=O)CSC[C@@H](C(=O)N[C@@H](CCN)C(N)=O)NC(=O)[C@H](CCCN)NC(=O)[C@H](C(C)C)NC(=O)[C@H](Cc4cccc(F)c4)NC(=O)[C@H](CCN)NC(=O)[C@@H](CC(C)C)NC(=O)[C@H](C)N(C)C(=O)[C@H](CCC(N)=O)NC(=O)[C@H](Cc4ccc(-c5ccccc5)cc4)NC3=O)cc2)cc1` [Example 5052] ({CH2CO}-[Abu(3S-NH2)][Phe(4-COOH)]D[Phe(3-Me)][Bip(4'-NHAc)][Bip]Q[NMeA][dL][Dab][Phe(3-F)]V[Orn]C[Dab]-NH2; thioether N-14), the IC50 in test [1] was 0.0081 µM; in test [2] it was 0.0084 µM.

Consider `CC(=O)Nc1ccc(-c2ccc(C[C@@H]3NC(=O)[C@H](Cc4cccc(C)c4)NC(=O)[C@H](CC(=O)O)NC(=O)[C@H](Cc4ccc(C(=O)O)cc4)NC(=O)[C@H]([C@H](C)N)NC(=O)CSC[C@@H](C(=O)N[C@@H](CCN)C(N)=O)NC(=O)[C@H](CCCN)NC(=O)[C@H](C(C)C)NC(=O)[C@H](CC4CCCCC4)NC(=O)[C@H](CCN)NC(=O)[C@@H](CC(C)C)NC(=O)[C@H](C)N(C)C(=O)[C@H](CCC(N)=O)NC(=O)[C@H](Cc4ccc(-c5ccccc5)cc4)NC3=O)cc2)cc1` [Example 5051] ({CH2CO}-[Abu(3S-NH2)][Phe(4-COOH)]D[Phe(3-Me)][Bip(4'-NHAc)][Bip]Q[NMeA][dL][Dab][Cha]V[Orn]C[Dab]-NH2; thioether N-14), for which the IC50 in test [1] turned out to be 0.0032 µM; in test [2], 0.0021 µM.

Regarding `CC(C)C[C@H]1NC(=O)[C@H](C)N(C)C(=O)[C@H](CCC(N)=O)NC(=O)[C@H](Cc2ccc(-c3ccccc3)cc2)NC(=O)[C@H](Cc2ccc(C(=O)O)cc2)NC(=O)[C@H](Cc2cccc(C(F)(F)F)c2)NC(=O)[C@H](CC(=O)NS(=O)(=O)c2ccc(F)cc2)NC(=O)[C@H](Cc2ccc(C(=O)O)cc2)NC(=O)[C@H](CN2CCOCC2)NC(=O)CSC[C@@H](C(=O)N[C@@H](CCN)C(N)=O)NC(=O)[C@H](CCCN)NC(=O)[C@H](C(C)C)NC(=O)[C@H](CC2CCCCC2)NC(=O)[C@H](CCN)NC1=O` [Example 5079] ({CH2CO}-[Ala(morpholin-4-yl)][Phe(4-COOH)][X14][Phe(3-CF3)][Phe(4-COOH)][Bip]Q[NMeA][dL][Dab][Cha]V[Orn]C[Dab]-NH2; thioether N-14), the IC50 in test [1] came out at 0.138 µM; in test [2], 0.229 µM.

As to `CC(=O)Nc1ccc(-c2ccc(C[C@@H]3NC(=O)[C@H](Cc4cccc(C)c4)NC(=O)[C@H](CC(=O)O)NC(=O)[C@H](Cc4ccc(C(=O)O)cc4)NC(=O)[C@H](CN4CCOCC4)NC(=O)CSC[C@@H](C(=O)N[C@@H](CCN)C(N)=O)NC(=O)[C@H](CCCN)NC(=O)[C@H](C(C)C)NC(=O)[C@H](Cc4cccc(F)c4)NC(=O)[C@H](CCN)NC(=O)[C@@H](CC(C)C)NC(=O)[C@H](C)N(C)C(=O)[C@H](CCC(N)=O)NC(=O)[C@H](Cc4ccc(-c5ccccc5)cc4)NC3=O)cc2)cc1` [Example 5049] ({CH2CO}-[Ala(morpholin-4-yl)][Phe(4-COOH)]D[Phe(3-Me)][Bip(4'-NHAc)][Bip]Q[NMeA][dL][Dab][Phe(3-F)]V[Orn]C[Dab]-NH2; thioether N-14), the IC50 in test [1] was 0.0083 µM; in test [2], 0.007 µM.

On to `Cc1cccc(C[C@@H]2NC(=O)[C@H](CC(=O)O)NC(=O)[C@H](Cc3ccc(OCC(=O)O)cc3)NC(=O)[C@H](CN3CCOCC3)NC(=O)CSC[C@@H](C(=O)N[C@@H](CCN)C(N)=O)NC(=O)[C@H](CCCN)NC(=O)[C@H](C(C)C)NC(=O)[C@H](Cc3cccnc3)NC(=O)[C@H](CCN)NC(=O)[C@@H](CC(C)C)NC(=O)[C@H](C)N(C)C(=O)[C@H](CCC(N)=O)NC(=O)[C@H](Cc3ccc(-c4ccccc4)cc3)NC(=O)[C@H](Cc3ccc(C(=O)O)cc3)NC2=O)c1` [Example 5039] ({CH2CO}-[Ala(morpholin-4-yl)]Y(Carboxymethyl)D[Phe(3-Me)][Phe(4-COOH)][Bip]Q[NMeA][dL][Dab][3Pal]V[Orn]C[Dab]-NH2; thioether N-14), for which the IC50 amounted to 0.0729 µM in test [1] and 0.0607 µM in test [2].

As for `CC(C)C[C@H]1NC(=O)[C@H](C)N(C)C(=O)[C@H](CCC(N)=O)NC(=O)[C@H](Cc2ccc(-c3ccccc3)cc2)NC(=O)[C@H](Cc2ccc(C(=O)O)cc2)NC(=O)[C@H](Cc2cccc(C(F)(F)F)c2)NC(=O)[C@H](CCNC(=O)CC(=O)O)NC(=O)[C@H](Cc2ccc(C(=O)O)cc2)NC(=O)[C@H](CN2CCOCC2)NC(=O)CSC[C@@H](C(=O)N[C@@H](CCN)C(N)=O)NC(=O)[C@H](CCCN)NC(=O)[C@H](C(C)C)NC(=O)[C@H](CC2CCCCC2)NC(=O)[C@H](CCN)NC1=O` [Example 5075] ({CH2CO}-[Ala(morpholin-4-yl)][Phe(4-COOH)][Dab](Malonyl)[Phe(3-CF3)][Phe(4-COOH)][Bip]Q[NMeA][dL][Dab][Cha]V[Orn]C[Dab]-NH2; thioether N-14), the figures for the IC50 in test [1] and in test [2] were 0.128 µM and 0.372 µM, respectively.

The values above are taken from patent publication US20240409585A1, “MACROCYCLIC IMMUNOMODULATORS” (priority 2021, published 2024).
